Experimental data: patent US20240081328A1, “Use of 4-Nitro-3-(Trifluoromethyl)Phenol in Killing or Controlling Pomacea Canaliculata, Method for Killing or Controlling Pomacea Canaliculata, and Molluscicide” (priority 2021, published 2024)
Read-outs that look alike come from different tables or passages of the source.

System: Pomacea canaliculata
Assay: Immersion test of dilutions in beakers, mortality rate of Pomacea canaliculata
Assay type: in vivo
Conditions: for mortality at 0.0039 µg/mL / mortality at 0.0078 µg/mL / mortality at 0.0156 µg/mL / mortality at 0.0312 µg/mL / mortality at 0.0625 µg/mL / mortality at 0.125 µg/mL / mortality at 0.25 µg/mL / mortality at 0.5 µg/mL: Pomacea canaliculata, read-out: Mortality rate (%) of Pomacea canaliculata at different action time (h); for mortality at 0.0039 µg/mL: 0.0039 mg/L; for mortality at 0.0078 µg/mL: 0.0078 mg/L; for mortality at 0.0156 µg/mL: 0.0156 mg/L; for mortality at 0.0312 µg/mL: 0.0312 mg/L; for mortality at 0.0625 µg/mL: 0.0625 mg/L
Method: 0.5 mg of 4-nitro-3-(trifluoromethyl)phenol and 0.5 mg of niclosamide were completely dissolved in 1 mL of a dimethyl sulfoxide (DMSO) solution separately, and diluted to 1,000 mL with deaminized water to obtain a 4-nitro-3-(trifluoromethyl)phenol solution with a concentration of 0.5 mg/L and a niclosamide solution with a concentration of 0.5 mg/L.
The two solutions were separately diluted into 7 concentrations of dilutions using a doubling dilution method, including 0.25 mg/L, 0.125 mg/L, 0.0625 mg/L, 0.0312 mg/L, 0.0156 mg/L, and 0.0078 mg/L, and 0.0039 mg/L.
400 mL of the dilutions with different concentrations were separately poured into a 500 mL beaker, 10 Pomacea canaliculata samples were put into the dilution of each concentration, and each bottle mouth was sealed with wire mesh to completely immerse the Pomacea canaliculata in the dilution; clear water was used as a control group.
The experimental data were used to calculate the mortality rate of each treatment according to the following formula. Each calculation result was rounded to two decimal places. A formula for calculating the mortality rate was: […]
In the formula: P represented the mortality rate, in percentage (%); Σ^Ki represented • the number of dead Pomacea canaliculata, in snails; Σ^Ni represented the total number of treated Pomacea canaliculata, in snails.

O=C(Nc1ccc([N+](=O)[O-])cc1Cl)c1cc(Cl)ccc1O [niclosamide]
killing of Pomacea canaliculata (in words) (0.125 mg/L, within 24 h): all Pomacea canaliculata died | killing of Pomacea canaliculata (in words) (0.25 mg/L, action time 12 h): all Pomacea canaliculata died | killing of Pomacea canaliculata (in words) (0.5 mg/L, action time 12 h): all Pomacea canaliculata died | mortality at 0.0039 µg/mL (action time 0 h): 0% | mortality at 0.0039 µg/mL (action time 12 h): 0% | mortality at 0.0039 µg/mL (action time 24 h): 20% | mortality at 0.0039 µg/mL (action time 36 h): 30% | mortality at 0.0039 µg/mL (action time 48 h): 30% | mortality at 0.0039 µg/mL (action time 60 h): 30% | mortality at 0.0039 µg/mL (action time 72 h): 40% | mortality at 0.0078 µg/mL (action time 0 h): 0% | mortality at 0.0078 µg/mL (action time 12 h): 10% | mortality at 0.0078 µg/mL (action time 24 h): 40% | mortality at 0.0078 µg/mL (action time 36 h): 40% | mortality at 0.0078 µg/mL (action time 48 h): 40% | mortality at 0.0078 µg/mL (action time 60 h): 40% | mortality at 0.0078 µg/mL (action time 72 h): 70% | mortality at 0.0156 µg/mL (action time 0 h): 0% | mortality at 0.0156 µg/mL (action time 12 h): 10% | mortality at 0.0156 µg/mL (action time 24 h): 30% | mortality at 0.0156 µg/mL (action time 36 h): 60% | mortality at 0.0156 µg/mL (action time 48 h): 70% | mortality at 0.0156 µg/mL (action time 60 h): 70% | mortality at 0.0156 µg/mL (action time 72 h): 70% | mortality at 0.0312 µg/mL (action time 0 h): 0% | mortality at 0.0312 µg/mL (action time 12 h): 10% | mortality at 0.0312 µg/mL (action time 24 h): 50% | mortality at 0.0312 µg/mL (action time 36 h): 70% | mortality at 0.0312 µg/mL (action time 48 h): 80% | mortality at 0.0312 µg/mL (action time 60 h): 80% | mortality at 0.0312 µg/mL (action time 72 h): 80% | mortality at 0.0625 µg/mL (action time 0 h): 0% | mortality at 0.0625 µg/mL (action time 12 h): 30% | mortality at 0.0625 µg/mL (action time 24 h): 50% | mortality at 0.0625 µg/mL (action time 36 h): 80% | mortality at 0.0625 µg/mL (action time 48 h): 80% | mortality at 0.0625 µg/mL (action time 60 h): 100% | mortality at 0.0625 µg/mL (action time 72 h): 100% | mortality at 0.125 µg/mL (0.125 mg/L, action time 0 h): 0% | mortality at 0.125 µg/mL (0.125 mg/L, action time 12 h): 90% | mortality at 0.125 µg/mL (0.125 mg/L, action time 24 h): 100% | mortality at 0.125 µg/mL (0.125 mg/L, action time 36 h): 100% | mortality at 0.125 µg/mL (0.125 mg/L, action time 48 h): 100% | mortality at 0.125 µg/mL (0.125 mg/L, action time 60 h): 100% | mortality at 0.125 µg/mL (0.125 mg/L, action time 72 h): 100% | mortality at 0.25 µg/mL (0.25 mg/L, action time 0 h): 0% | mortality at 0.25 µg/mL (0.25 mg/L, action time 12 h): 100% | mortality at 0.25 µg/mL (0.25 mg/L, action time 24 h): 100% | mortality at 0.25 µg/mL (0.25 mg/L, action time 36 h): 100% | mortality at 0.25 µg/mL (0.25 mg/L, action time 48 h): 100% | mortality at 0.25 µg/mL (0.25 mg/L, action time 60 h): 100% | mortality at 0.25 µg/mL (0.25 mg/L, action time 72 h): 100% | mortality at 0.5 µg/mL (0.5 mg/L, action time 0 h): 0% | mortality at 0.5 µg/mL (0.5 mg/L, action time 12 h): 100% | mortality at 0.5 µg/mL (0.5 mg/L, action time 24 h): 100% | mortality at 0.5 µg/mL (0.5 mg/L, action time 36 h): 100% | mortality at 0.5 µg/mL (0.5 mg/L, action time 48 h): 100% | mortality at 0.5 µg/mL (0.5 mg/L, action time 60 h): 100% | mortality at 0.5 µg/mL (0.5 mg/L, action time 72 h): 100% | mortality rate of Pomacea canaliculata within 72 h (concentration of below 0.0312 mg/L, within 72 h): < 100%
